From ChEMBL document CHEMBL5579804, “Synthesis and kinetic evaluation of phosphomimetic inhibitors targeting type B ribose-5-phosphate isomerase from Mycobacterium tuberculosis” (Bioorg Med Chem Lett, 2024)

Columns and labels:
[1] = target: T1, ribose-5-phosphate isomerase (Spinacia oleracea, UniProt Q8RU73); assay: Competitive inhibition of Spinacia oleracea RPIA using D-ribose-5-phosphate as substrate
T1 sequence (Q8RU73 whole entry): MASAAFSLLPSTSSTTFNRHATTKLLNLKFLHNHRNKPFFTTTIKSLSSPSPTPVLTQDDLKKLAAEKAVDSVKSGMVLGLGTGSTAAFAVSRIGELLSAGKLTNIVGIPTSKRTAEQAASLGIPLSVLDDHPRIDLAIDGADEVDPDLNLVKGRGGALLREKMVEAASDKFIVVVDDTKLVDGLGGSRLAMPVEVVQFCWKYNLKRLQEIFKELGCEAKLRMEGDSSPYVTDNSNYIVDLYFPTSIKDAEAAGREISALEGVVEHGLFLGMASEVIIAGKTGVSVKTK

[2] = target: T2, Ribose-5-phosphate isomerase B (Escherichia coli (strain K12), UniProt P37351); assay: Competitive inhibition of Escherichia coli RPIB using D-ribose-5-phosphate as substrate
T2 sequence (P37351 whole entry): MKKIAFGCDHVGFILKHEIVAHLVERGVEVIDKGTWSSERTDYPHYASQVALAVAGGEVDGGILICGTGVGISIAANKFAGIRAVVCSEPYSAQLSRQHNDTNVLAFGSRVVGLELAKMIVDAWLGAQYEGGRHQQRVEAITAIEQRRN

[3] = Stability in Tris-HCl buffer spiked with alkaline phosphatase incubated for 24 hrs; assay type: physicochemical
[4] = Stability in Tris-HCl buffer spiked with calf serum incubated for 24 hrs; assay type: physicochemical, cell-free; details: cattle
[5] = target: T3, Ribose-5-phosphate isomerase B (Mycobacterium tuberculosis, UniProt P9WKD7); assay: Competitive inhibition of Mycobacterium tuberculosis RPIB using D-ribose-5-phosphate as substrate
T3 sequence (P9WKD7 whole entry): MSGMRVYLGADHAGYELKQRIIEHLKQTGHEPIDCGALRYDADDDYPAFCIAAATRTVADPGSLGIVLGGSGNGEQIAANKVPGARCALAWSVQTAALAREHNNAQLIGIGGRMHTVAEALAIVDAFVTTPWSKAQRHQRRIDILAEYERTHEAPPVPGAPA

[6] = Stability in Tris-HCl buffer incubated for 24 hrs; assay type: physicochemical
[7] = target: T3, Ribose-5-phosphate isomerase B; assay: Competitive inhibition of Mycobacterium tuberculosis RPIB assessed as inhibition constant using D-ribose-5-phosphate as substrate by Cheng-Prusoff equation analysis
[8] = target: T2, Ribose-5-phosphate isomerase B; assay: Competitive inhibition of Escherichia coli RPIB assessed as inhibition constant using D-ribose-5-phosphate as substrate by Cheng-Prusoff equation analysis
[9] = target: T1, ribose-5-phosphate isomerase; assay: Competitive inhibition of Spinacia oleracea RPIA assessed as inhibition constant using D-ribose-5-phosphate as substrate by Cheng-Prusoff equation analysis
[10] = Stability in Tris-HCl buffer assessed as compound hydrolysis incubated for 24 hrs; assay type: physicochemical; details: read-out: Drug degradation
[11] = target: T3, Ribose-5-phosphate isomerase B; assay: Competitive inhibition of Mycobacterium tuberculosis RPIB using D-ribose-5-phosphate as substrate by spectrophotometric analysis
[12] = target: T2, Ribose-5-phosphate isomerase B; assay: Competitive inhibition of Escherichia coli RPIB using D-ribose-5-phosphate as substrate by spectrophotometric analysis
[13] = target: T3, Ribose-5-phosphate isomerase B; assay: Competitive inhibition of Mycobacterium tuberculosis RPIB using D-ribose-5-phosphate as substrate assessed as inhibition constant by spectrophotometric analysis

SMILES | IC50 [1] [µM] | IC50 [2] [µM] | Stability [3] | Stability [4] | IC50 [5] [µM] | Stability [6] | Ki [7] [µM] | Ki [8] [µM] | Ki [9] [µM] | degraded at 24 h [10] [%] | IC50 [11] [µM] | IC50 [12] [µM] | Ki [13] [µM]
O=P(O)(O)CC[C@H]1OC(O)[C@H](O)[C@@H]1O (some centres not stated) | > 3000 | 2410 | Stable | Stable | > 3000 | Stable | – | – | – | – | – | – | –
O=S(=O)(O)CC[C@H]1OC(O)[C@H](O)[C@@H]1O (some centres not stated) | 620 | 480 | Stable | Stable | 240 | Stable | 110 | 170 | 290 | – | – | – | –
O=C(O)[C@@H](O)[C@@H](O)[C@@H](O)COP(=O)(O)O (single isomer, unassigned) | 95 | 1400 | Unstable | Unstable | 21 | – | – | – | 38 | 20 | 31 | 1310 | 9
O=S(=O)(O)OC[C@H]1OC(O)[C@H](O)[C@@H]1O (some centres not stated) | 320 | 160 | Stable | Unstable | 120 | Stable | 40 | 90 | 180 | – | – | – | –
CC(C(C(=O)O)C(=O)O)[C@@H](O)[C@@H](O)[C@@H](O)CCP(=O)(O)O (some centres not stated) | > 1500 | 1360 | Stable | Stable | 200 | Stable | 80 | – | > 750 | – | – | – | –
O=P(O)(O)OC[C@H]1O[C@@H](O)[C@H](O)[C@@H]1O | – | – | Unstable | Unstable | – | – | – | – | – | 10 | – | – | –
O=C(O)C(C[C@H]1OC(O)[C@H](O)[C@@H]1O)C(=O)O (some centres not stated) | 980 | 1340 | Stable | Stable | 810 | Stable | 340 | 670 | 450 | – | – | – | –
CC(C(C(=O)O)C(=O)O)[C@@H](O)[C@@H](O)[C@@H](O)CCC(=O)O (some centres not stated) | > 1500 | > 1500 | Stable | Stable | 470 | Stable | 290 | – | > 750 | – | – | – | –
